Laboratory results as given in paper PMC8037814, “Polymorphic Characterization, Pharmacokinetics, and Anti-Inflammatory Activity of Ginsenoside Compound K Polymorphs” (Molecules, 2021).
Values joined by “and” are separate entries in the source; they are usually repeats but may differ in a detail not shown here. Equal entries are not always repeated. Where two headings read alike, the source gives them in different places.

How the values were obtained:
[1] = Pharmacokinetics after oral administration of CK polymorphs in rats (20 mg/kg); type: in vivo, Sprague-Dawley rats; conditions: p.o. 20 mg/kg, individual rats 1-3
Experimental: All samples were analyzed with a triple quadrupole LC-MS/MS (API 4000 LC-MS/MS, AB Sciex, Framingham, MA, USA) coupled with an Agilent 1200 HPLC system (Agilent Technologies, Palo Alto, CA, USA). The MS was equipped with an electrospray system (ESI). The N2 gas temperature and ion-spray voltage were set to 550 °C and 4.5 kV, respectively. CK was measured in multiple reaction monitoring (MRM) mode using a negative electrospray ionization source at m/z 667.4 → 621.2 for CK (CID 25.6 v) and m/z 271.2 → 228.8 for internal standard (IS, (E)-5-(4-fluorostyryl)-2-isopropylbenzene-1,3-diol, Welichem Biotech Inc., Wayburne Drive Burnaby, BC, Canada) (CID 28.3 v) with a dwell time of 0.1 s.
Rats were divided randomly into 5 groups of six animals each (sex in half) and given 7 days to acclimatize to the facility before the experiments began. The four forms of CK were suspended in 0.5% sodium carboxymethyl cellulose (CMC-Na) solution and orally administered to rats at a dose of 20 mg/kg. A CK solution in a mixed solvent of dimethyl sulfoxide (DMSO)/castor oil/physiologic saline (3:5:92, v/v) was intravenously administered to the remaining group via the tail vein at a dose of 10 mg/kg. Blood samples were collected by retro-orbital puncture at the following times: 0.167, 0.333, 0.667, 1, 2, 3, 4, 6, 9, 12, and 24 h for the oral administration, and at 0.0083, 0.05, 0.133, 0.25, 0.5, 1, 2, 4, 6, and 9 h for the intravenous administration. Plasma samples were obtained by centrifuging a heparinized blood tube at 4000 rpm for 5 min and then stored at −70 °C until analysis.
The procedure for drug extraction from plasma samples was as follows: 0.2 mL acetonitrile, 0.2 mL plasma sample, and 10 μL IS (1 µg/mL) were added into a 1.5 mL Eppendorf-type tube. This mixture was vortexed for 1 min and then treated with 0.8 mL of methyl tert-butyl ether (MTBE) to precipitate the plasma proteins. After a mechanical vortex for 1 min and subsequent centrifugation (4000 rpm, 5 min), 0.8 mL of the supernatant was transferred and blow-dried with N2 at 40 °C in a water bath. Finally, the residue was dissolved in 120 μL of mobile phase, and then 10 μL was subjected to HPLC for analysis. […] Intra- and inter-day precision and accuracy never exceeded 15% by analyzing six replicate samples.
The CK pharmacokinetic parameters in rats, including the area under the curve (AUC(0–t) and AUC(0–∞)), mean residence time (MRT(0–t) and MRT(0–∞)), maximum concentration (Cmax), time to maximum concentration (Tmax), half-life (t1/2), apparent distribution volume (V), and total plasma clearance (CL), were derived from plasma concentration-time curves by using non-compartmental analysis (NCA) with DAS 2.0 software (Drug And Statistics, Mathematical Pharmacology Professional Committee of China, Shanghai, China). The absolute bioavailability (Fabs) was calculated from the dose-adjusted ratio of AUCp.o. to AUCi.v.. One-way analysis of variance (ANOVA) by SPSS 11.5 (SPSS Inc., Chicago, IL, USA) was conducted to compare the primary PK parameters.

[2] = test system: carrageenan-induced acute paw inflammation; test: Paw swelling test induced by carrageenan in rats; type: in vivo, Sprague-Dawley rats; design: paw volume: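 right hind paw volume measured with a plethysmometer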; conditions: listed as From I; for paw volume / paw edema: mean±SD of 6 rats; for edema inhibition: versus model group
Experimental: Rats were divided into 11 groups of six animals each (sex in half): the normal group, the model group, indomethacin group (1 mg/kg), and form I, II, III, IV groups (each form set 10 mg/kg and 20 mg/kg groups, respectively). Indomethacin and CK were ground and suspended in 0.5% CMC-Na solution. […] The same volume of saline was injected into the normal group. […] Paw edema and inhibitory rate were calculated as the following formula, and the differences among groups were compared with the t-test. Paw edema (%) = (Vn − V0)/V0 × 100%. Vn: paw volume at different time intervals after carrageenan injection. V0: paw volume before carrageenan injection. Inhibitory rate (%) = (Em − Ee)/Em × 100%. Em: paw edema of the model group. Ee: paw edema of the experimental group.

[3] = DSC thermal analysis of CK polymorphs; type: physicochemical; conditions: 20 K/min from 20 to 400 °C, dry nitrogen flow
Experimental: DSC measurements were performed on a DSC204 Phoenix calorimeter (NETZSCH, Selb, Germany) with a heating rate of 20 K/min from 20 to 400 °C. The dry nitrogen flow was about 50 mL/min. Data were analyzed using NETZSCH analysis software.

[4] = Pharmacokinetics after oral administration of CK polymorphs in rats (20 mg/kg); type: in vivo, Sprague-Dawley rats; conditions: 20 mg/kg; for bioavailability: p.o. 20 mg/kg vs i.v. 10 mg/kg, dose-adjusted AUC ratio, read-out: Fabs (absolute bioavailability); for half-life: read-out: t1/2z (converted); for Vd/F: read-out: Vz/F
[5] = 10 mg/kg p.o. qd 3 days, 3h after carrageenan
[6] = 10 mg/kg p.o. qd 3 days, 4h after carrageenan
[7] = 10 mg/kg p.o. qd 3 days, 5h after carrageenan
[8] = 10 mg/kg p.o. qd 3 days, 6h after carrageenan
[9] = 20 mg/kg p.o. qd 3 days, 3h after carrageenan
[10] = 20 mg/kg p.o. qd 3 days, 4h after carrageenan
[11] = 20 mg/kg p.o. qd 3 days, 5h after carrageenan
[12] = 20 mg/kg p.o. qd 3 days, 6h after carrageenan
[13] = female rats, p.o. 20 mg/kg, mean ± SD (n = 3)
[14] = female, Sprague-Dawley, rat, plasma, po, female rats, p.o. 20 mg/kg, mean ± SD (n = 3)
[15] = male rats, p.o. 20 mg/kg, mean ± SD (n = 3)
[16] = male, Sprague-Dawley, rat, plasma, po, male rats, p.o. 20 mg/kg, mean ± SD (n = 3)

CC(C)=CCCC(C)(OC1OC(CO)C(O)C(O)C1O)C1CCC2(C)C1C(O)CC1C3(C)CCC(O)C(C)(C)C3CCC12C [Form I, 20-O-β-D-glucopyranosyl-20(S)-protopanaxadiol]
AUC(0-t) ([1]; female rats): 2017.26 ng·h/mL and 2120.78 ng·h/mL and 2470.06 ng·h/mL
AUC(0-∞) ([1]; female rats): 2050.82 ng·h/mL and 2124.00 ng·h/mL and 2473.25 ng·h/mL
CLz/F ([1]; female rats): 162 mL/min/kg and 157 mL/min/kg and 135 mL/min/kg
Cmax ([1]; female rats): 440.01 ng/mL and 325.66 ng/mL and 594.33 ng/mL
Vz/F ([1]; female rats): 56.64 L/kg and 34.89 L/kg and 29.88 L/kg
AUC(0-t) ([1]; male rats): 762.48 ng·h/mL and 1612.79 ng·h/mL and 1074.22 ng·h/mL
AUC(0-∞) ([1]; male rats): 762.82 ng·h/mL and 1709.08 ng·h/mL and 1092.09 ng·h/mL
CLz/F ([1]; male rats): 437 mL/min/kg and 195 mL/min/kg and 305.2 mL/min/kg
Cmax ([1]; male rats): 168.60 ng/mL and 425.66 ng/mL and 183.98 ng/mL
t1/2z ([1]; male rats): 2.87 h and 3.98 h and 2.06 h
paw volume ([2]; 10 mg/kg p.o. qd 3 days, 0h (before carrageenan)): 1.60±0.13
paw edema [2, 5]: 61.02±11.75%
paw volume [2, 5]: 2.57±0.14
edema inhibition [2, 5]: 5.06%
paw edema [2, 6]: 51.30±10.45%
paw volume [2, 6]: 2.42±0.19
edema inhibition [2, 6]: 17.74%
paw edema [2, 7]: 34.69±9.89%
paw volume [2, 7]: 2.15±0.16
edema inhibition [2, 7]: 32.99%
paw edema [2, 8]: 27.53±8.13%
paw volume [2, 8]: 2.03±0.08
edema inhibition [2, 8]: 29.97%
paw volume ([2]; 20 mg/kg p.o. qd 3 days, 0h (before carrageenan)): 1.62±0.13
paw edema [2, 9]: 52.64±19.00%
paw volume [2, 9]: 2.45±0.16
edema inhibition [2, 9]: 18.10%
paw edema [2, 10]: 43.25±16.04%
paw volume [2, 10]: 2.30±0.11
edema inhibition [2, 10]: 30.65%
paw edema [2, 11]: 31.96±15.31%
paw volume [2, 11]: 2.12±0.08
edema inhibition [2, 11]: 38.25%
paw edema [2, 12]: 24.52±13.39%
paw volume [2, 12]: 2.00±0.09
edema inhibition [2, 12]: 37.62%
DSC onset of the decomposition endotherm (thermodynamical stability) [3]: 267.5 °C
t1/2z ([4]; female rats, p.o. 20 mg/kg, individual rats 1-3): 2.57 h and 2.56 h
AUC(0–t) [4, 13]: 2202.7 ± 237.26 ng·h/mL
AUC(0–∞) [4, 13]: 2216.0 ± 225.74 ng·h/mL
CLz/F [4, 13]: 152 ± 14.7 mL/min/kg
Cmax [4, 13]: 453.33 ± 134.83 ng/mL and 453.3 ± 134.8 ng/mL
Vz/F [4, 13]: 40.5 ± 14.2 L/kg
t1/2z [4, 13]: 3.0 ± 0.84 h
bioavailability ([4]; female, Sprague-Dawley, rat, plasma, po, female rats): 6.84%
half-life ([4]; female, Sprague-Dawley, rat, plasma, po, female rats, p.o. 20 mg/kg, individual rats 1-3): 4.03 h
AUC(0-inf) [4, 14]: 2220 ± 226 ng·h/mL
Vd/F [4, 14]: 40.5 ± 14.2 L/kg
half-life [4, 14]: 3.05 ± 0.84 h
Vz/F ([4]; male rats, p.o. 20 mg/kg, individual rats 1-3): 77.79 L/kg and 48.49 L/kg and 105.00 L/kg
AUC(0–t) [4, 15]: 1149.8 ± 430.17 ng·h/mL
AUC(0–∞) [4, 15]: 1188.0 ± 480.37 ng·h/mL
CLz/F [4, 15]: 312 ± 121 mL/min/kg
Cmax [4, 15]: 259.4 ± 144.2 ng/mL
Vz/F [4, 15]: 77.1 ± 28.3 L/kg
t1/2z [4, 15]: 3.0 ± 0.96 h
bioavailability ([4]; male, Sprague-Dawley, rat, plasma, po, male rats): 3.92%
AUC(0-t) [4, 16]: 1150 ± 430 ng·h/mL
CL/F ([4]; male, Sprague-Dawley, rat, plasma, po, male rats, p.o. 20 mg/kg, mean ± SD (n = 3), read-out: CLz/F (converted)): 312 mL/min/kg
Cmax ([4]; male, Sprague-Dawley, rat, plasma, po, male rats, p.o. 20 mg/kg, mean ± SD (n = 3), read-out: Cmax): 259 ± 144 ng/mL
Vd/F [4, 16]: 77.1 ± 28.3 L/kg
half-life [4, 16]: 2.97 ± 0.96 h
